Measurements published in article doi:10.1101/2025.03.27.645769, “Structural Insights into Kainate Receptor Desensitization” (bioRxiv, 2025).

Target: T1, GluK2 (Rattus norvegicus, UniProt P42260)
T1 construct: gene Grik2; wild-type rat GluK2 expressed in HEK293T cells
Assay: whole-cell patch-clamp, potentiation of glutamate-evoked peak current
Assay type: cell-based

T1 sequence (P42260 32-908): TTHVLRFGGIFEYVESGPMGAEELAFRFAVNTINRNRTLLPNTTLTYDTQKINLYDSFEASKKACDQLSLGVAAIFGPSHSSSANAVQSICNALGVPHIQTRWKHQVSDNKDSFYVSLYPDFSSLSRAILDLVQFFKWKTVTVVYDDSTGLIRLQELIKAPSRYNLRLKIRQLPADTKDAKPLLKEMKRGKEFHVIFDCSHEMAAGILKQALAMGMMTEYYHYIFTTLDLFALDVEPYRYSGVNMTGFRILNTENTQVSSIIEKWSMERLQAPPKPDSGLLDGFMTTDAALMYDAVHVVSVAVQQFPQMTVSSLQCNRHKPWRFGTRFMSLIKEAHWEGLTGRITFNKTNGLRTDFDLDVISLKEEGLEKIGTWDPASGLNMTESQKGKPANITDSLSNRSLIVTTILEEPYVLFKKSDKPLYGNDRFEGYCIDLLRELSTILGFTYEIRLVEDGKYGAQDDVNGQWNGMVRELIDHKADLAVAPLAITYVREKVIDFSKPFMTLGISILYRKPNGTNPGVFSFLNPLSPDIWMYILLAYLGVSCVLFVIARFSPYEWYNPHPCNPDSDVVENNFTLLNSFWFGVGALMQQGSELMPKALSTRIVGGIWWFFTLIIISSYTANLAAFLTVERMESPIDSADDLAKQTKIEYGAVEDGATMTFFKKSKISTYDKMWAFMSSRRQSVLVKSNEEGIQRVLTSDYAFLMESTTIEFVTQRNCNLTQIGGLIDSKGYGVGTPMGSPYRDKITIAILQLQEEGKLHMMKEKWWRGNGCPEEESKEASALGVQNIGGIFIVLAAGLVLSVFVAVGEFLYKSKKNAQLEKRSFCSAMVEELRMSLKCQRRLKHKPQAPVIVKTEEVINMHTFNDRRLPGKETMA

## O=S1(=O)NCN(C2CC2)c2ccc(F)cc21 [BPAM344]
  whole-cell patch-clamp, potentiation of glutamate-evoked peak current: Potentiation of the peak current amplitudes (Ipeak) of GluK2 WT (left)
